Experimental data as given in patent publication US7410975B2, “Small molecule toll-like receptor (TLR) antagonists” (Coley Pharmaceutical Group, Inc., priority 2003, dated 2008).
Read-outs that look alike come from different tables or passages of the source.

Key:
[1] = tested on: CpG ODN-generated IL-6 production by human PBMC; test: Blockade of CpG ODN-generated IL-6 production by human PBMC, ELISA (Example 8, Table 19); assay type: cell-based; settings: CpG-ODN 2006, 16 h
Source text: Alternatively, TLR9 ligand antagonism in human peripheral blood mononuclear cells (PBMC) was monitored. Peripheral blood buffy coat preparations from healthy male and female human donors were obtained from the Blood Bank of the University of Düsseldorf (Germany) and from these, PBMC were purified by centrifugation over Ficoll-Hypaque (Sigma). The purified PBMC were resuspended in RPMI 1640 culture medium supplemented with 5% (v/v) heat-inactivated human AB serum (Bio Whittaker, Belgium) or 10% (v/v) heat-inactivated fetal calf serum (FCS), 1.5 mM L-glutamine, 100 U/ml penicillin and 100 μg/ml streptomycin (all from Sigma). Fresh PBMC at a concentration of 3×10^6/ml to 5×10^6/ml were added to 96-well round-bottomed plates (150 μl/well). After cell plating, antagonist was added at varying concentrations starting at 50 μM with a 1/5 to 1/6 dilution for 7 steps. The cells were then stimulated with the TLR9 agonist, CpG-ODN 2006, and cultured for 16 h in a humidified incubator at 37° C. Culture supernatants were collected and, if not used immediately, frozen at −20° C. until required. Interleukin 6 (IL-6) in the supernatants was quantitatively assessed using commercially available ELISA Kits (IL6, Diaclone, USA). Sigmoidal antagonism curves were generated and IC50 calculated. Results shown in Table 19 under the heading IL-6 are the IC50 dose (μM) for blockade of CpG ODN-generated IL-6 production by human PBMC.

hTLR9 = molecular target: T1, hTLR9 (Homo sapiens, UniProt Q9NR96); test: hTLR9 antagonism IC50, hTLR9-NFkB-293 cells, luciferase readout, CpG-ODN 2006 (Examples 8 and 18, Tables 19 and 20); assay type: cell-based; settings: hTLR9-NFkB-293 cells, EC50 dose of CpG-ODN 2006, 16 h; Table 19 quinazolines; read-out: hTLR9 (IC50 dose for blockade of a CpG ODN-generated signal)
T1 construct: expressed in transfected cells
T1 sequence (Q9NR96 26-1032): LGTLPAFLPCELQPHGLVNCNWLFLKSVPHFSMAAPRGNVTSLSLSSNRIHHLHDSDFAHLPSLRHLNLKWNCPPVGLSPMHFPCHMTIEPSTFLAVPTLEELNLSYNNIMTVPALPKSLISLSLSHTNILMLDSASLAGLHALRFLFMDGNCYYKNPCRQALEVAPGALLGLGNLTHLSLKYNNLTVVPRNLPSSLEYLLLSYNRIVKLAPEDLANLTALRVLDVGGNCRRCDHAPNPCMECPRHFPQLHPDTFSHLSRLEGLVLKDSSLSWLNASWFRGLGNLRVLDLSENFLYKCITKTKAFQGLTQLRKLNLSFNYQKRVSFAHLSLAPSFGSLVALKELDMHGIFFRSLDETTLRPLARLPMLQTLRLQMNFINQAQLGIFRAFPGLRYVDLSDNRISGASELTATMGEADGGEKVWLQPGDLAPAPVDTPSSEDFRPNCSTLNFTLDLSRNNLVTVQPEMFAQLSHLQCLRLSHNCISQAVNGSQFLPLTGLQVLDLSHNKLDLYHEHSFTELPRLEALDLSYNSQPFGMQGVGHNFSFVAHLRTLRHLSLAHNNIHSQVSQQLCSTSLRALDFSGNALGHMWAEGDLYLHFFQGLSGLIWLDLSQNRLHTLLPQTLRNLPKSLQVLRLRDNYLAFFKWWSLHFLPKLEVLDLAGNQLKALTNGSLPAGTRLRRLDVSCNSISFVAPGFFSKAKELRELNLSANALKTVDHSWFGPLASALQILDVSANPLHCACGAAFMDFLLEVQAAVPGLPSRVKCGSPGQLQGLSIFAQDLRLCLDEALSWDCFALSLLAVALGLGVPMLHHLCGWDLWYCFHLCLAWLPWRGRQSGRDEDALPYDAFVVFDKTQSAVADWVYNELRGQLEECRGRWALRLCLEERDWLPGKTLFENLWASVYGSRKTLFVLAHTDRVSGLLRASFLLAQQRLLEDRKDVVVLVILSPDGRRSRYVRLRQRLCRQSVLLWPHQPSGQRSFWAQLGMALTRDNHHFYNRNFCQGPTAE
Method: (§1) hTLR9-NFkB-293 cells were counted and seeded at 1.5×10^4 cells per well in 96-well cell culture plates one day before assaying and cultured at 37° C./5% CO2, as described in Example 7. The day of the assay, antagonist was added at varying concentrations starting at 50 μM with a 1/5 to 1/6 dilution for 7 steps. The cells were then stimulated with the EC50 dose of the TLR9 agonist, CpG-ODN 2006, and cultured for 16 h in a humidified incubator at 37° C. The culture supernatant was removed and the cells were treated with lysis buffer and stored at −80° C. before measuring luciferase activity as described in Example 7. […] Results shown in Table 19 under the heading hTLR9 are the IC50 dose (μM) for blockade of a CpG ODN-generated signal in hTLR9-NFkB-293 cells.
as §1, with “20” for “19”

[2] = Macfarlane's assay of chloroquines (IC50); settings: from the Macfarlane IC50 values
Source text: It turns out that chloroquine, hydroxychloroquine, mono de-ethylchloroquine, and bis de-ethylchloroquine have been examined by Macfarlane.

Plasmodium falciparum = settings: treatment of malaria; Aderounmu 1984; cited from earlier work
[3] = read-out: IC50 by Macfarlane's assay; cited from earlier work
[4] = cited from earlier work
human TLR9 (hTLR9) = molecular target: T2, human TLR9 (hTLR9) (Homo sapiens, UniProt Q9NR96); assay type: cell-based; settings: three-point assay at 50, 5.0 or 0.5 μM; EC50 dose of CpG-ODN 2006, 16 h
T2 construct: expressed in transfected cells
T2 sequence (Q9NR96 26-1032): T1 sequence (Q9NR96 26-1032)
Method: Stably co-transfecting the human TLR9 receptor (hTLR9) and an NF-κB promoter-driven luciferase gene into HEK-293 cells created the cell line hTLR9-NFkB-293. hTLR9-NFkB-293 cells were counted and seeded at 1.5×10^4 cells per well in 96-well cell culture plates one day before assaying and cultured at 37° C./5% CO2. The day of the assay, antagonist was added at 50 μM, 5.0 μM or 0.5 μM. The cells were then stimulated with the EC50 dose of the TLR9 agonist, CpG-ODN 2006, and cultured for 16 h in a humidified incubator at 37° C. The culture supernatant was removed and the cells were treated with lysis buffer and stored at −80° C. before measuring luciferase activity. The luciferase readout was measured according to manufacturer's instructions using a luciferase assay system available from Promega, USA. The antagonist dose listed in Table 18 is the minimum effective dose (μM) for blockade of the TLR9 agonist. As evident from the results presented in Table 18, the minimum effective dose (μM) for blockade of the TLR9 agonist was 0.5 μM or 5 μM for all of the compounds tested, as measured by this three-point assay.

WEHI 231 B-cells = settings: anti-surface IgM, U.S. Pat. No. 6,479,504, read-out: EC50, half-maximal inhibition of CpG-ODN effect on thymidine uptake; cited from earlier work

## CN(C)CCNC1NC(c2ccc(N3CCN(C)CC3)cc2)=Nc2ccccc21 (centres unmarked) [CMZ 203-34(201), N,N-dimethyl-N′-{2-[4-(4-methyl-piperazin-1-yl)-phenyl]-3,4-dihydro-quinazoline-4-yl}-ethane-1,2,-diamine]
[1]
  IC50: 50 nM
hTLR9
  IC50: 3 nM

## CN(C)CCNc1nc(-c2ccccc2)nc2ccccc12 [CMZ 203-44, N,N-Dimethyl-N′-(2-phenyl-quinazolin-4-yl)-ethane-1,2-diamine]
[1]
  IC50: 4000 nM
hTLR9
  IC50: 2400 nM

## CN(C)CCOc1nc(-c2ccc(N3CCN(C)CC3)cc2)nc2ccccc12 [CMZ 203-49(213), Dimethyl-(2-{2-[4-(4-methyl-piperazin-1-yl)-phenyl]-quinazolin-4-yloxy}-ethyl)-amine]
[1]
  IC50: 600 nM
hTLR9
  IC50: 2400 nM

## CN(C)CCNc1nc(-c2ccc(-c3ccccc3)cc2)nc2ccccc12 [CMZ 203-51, N′-(2-Biphenyl-4-yl-quinazolin-4-yl)-N,N-dimethyl-ethane-1,2-diamine]
[1]
  IC50: 6600 nM
hTLR9
  IC50: 5200 nM

## COc1cc2nc(N3CCN(C)CC3)nc(NCCN(C)C)c2cc1OC [CMZ 203-76, N′-[6,7-Dimethoxy-2-(4-methyl-piperazin-1-yl)-quinazolin-4-yl]-N,N-dimethyl-ethane-1,2-diamine]
[1]
  IC50: 221 nM
hTLR9
  IC50: 3 nM

## COc1cc2nc(N3CCN(c4ccccc4)CC3)nc(NCCN(C)C)c2cc1OC [CMZ 203-78, N′-[6,7-Dimethoxy-2-(4-phenyl-piperazin-1-yl)-quinazolin-4-yl]-N,N-dimethyl-ethane-1,2-diamine]
[1]
  IC50: 8 nM
hTLR9
  IC50: 3 nM

## CC(CCCN)Nc1ccnc2cc(Cl)ccc12 (centres unmarked) [bis de-ethylchloroquine]
[2]
  reduction of potency relative to chloroquine: about 18 fold
Plasmodium falciparum
  potency against Plasmodium falciparum: about half as active
[3]
  IC50: 1860 nM

## CCN(CC)CCCC(C)Nc1ccnc2cc(Cl)ccc12 (centres unmarked) [chloroquine]
Plasmodium falciparum
  potency against Plasmodium falciparum: about equal
[3]
  IC50: 110 nM
[4]; human, in vivo
  half life in humans: 18 days

## Cc1cc(C)c2c(N)c3cc(F)ccc3nc2n1 [compound 1727, 7-Fluoro-2,4-dimethyl-benzo[b][1,8]naphthyridin-5-ylamine]
Human TLR9 (hTLR9)
  antagonist dose (minimum effective dose for blockade of the TLR9 agonist): 0.5 µM

## CCN(CCO)CCCC(C)Nc1ccnc2cc(Cl)ccc12 (centres unmarked) [hydroxychloroquine]
[3]
  IC50: 410 nM

## CCNCCCC(C)Nc1ccnc2cc(Cl)ccc12 (centres unmarked) [mono de-ethylchloroquine]
[2]
  reduction of potency relative to chloroquine: about 7 fold
Plasmodium falciparum
  potency against Plasmodium falciparum: about equal
[3]
  IC50: 708 nM
[4]; humans
  half life relative to that of chloroquine: 1.5 times
[4]; humans, de Vries 1994
  half life in humans: 27 days

## CCN(CC)CCCC(C)Nc1c2ccc(Cl)cc2nc2ccc(OC)cc12 (centres unmarked) [quinacrine]
WEHI 231 B-cells
  EC50: ~8 nM
